Laboratory results taken from patent US10125097B2, “1- [1-(benzoyl)-pyrrolidine-2-carbonyl]-pyrrolidine-2-carbonitrile derivatives” (UNIVERSITAT DE BARCELONA, priority 2012, dated 2018).

Legend:
[1] = Parallel artificial membrane permeability assay (PAMPA); format: in vitro ADME; conditions: 200 μM initial concentration, pH 7.4, 4 hours, room temperature
Description: Parallel artificial membrane permeability assay (PAMPA) described in Kansy M et al., J. Med. Chem. 1998; 41(7):1007-10 was used to determine the capacity of compounds to cross the Blood-Brain Barrier (BBB) by passive diffusion (Di L et al., Eur. J. Med. Chem. 2003; 38(3):223-32). The effective permeability (Pe) of the compounds was measured at an initial concentration of 200 μM. The buffer solution was prepared from a commercial concentrated one following the manufacturer's instructions. pH was adjusted to 7.4 using a 0.5 M NaOH solution. A stock solution of new compound was prepared in DMSO and diluted with buffer solution to a final 200 μM concentration (0.5% DMSO content). The PAMPA sandwich was separated and each donor well was filled with 200 μL of the compound solution. The acceptor plate was placed into the donor plate, ensuring that the underside of the membrane was in contact with buffer. 4 μL of the mixture of phospholipids (20 mg/mL) in dodecane was added to the filter of each well, and 200 μL of buffer solution was added to the each acceptor well. The plate was covered and incubated at room temperature in a saturated humidity atmosphere for 4 hours under orbital agitation at 100 rpm. After 4 hours, the contents of the acceptor and donor compartments were analyzed by HPLC: 150 μL of each well from the donor plate and 150 μL of each well from the acceptor plate were transferred to HPLC vials, injecting each sample into a reverse-phase C18 column (150 mm×4.6 mm×5 μm, 100 Å) (100 μL/injection from the acceptor wells, 10 μL/injection from the donor wells and for t0 references). Transport was also confirmed by MALDI-TOF spectrometry.
The phospholipid mixture used was a porcine polar brain lipid extract, provided by Avanti polar lipids, with the following composition: 12.6% phosphatidylcholine (PC), 33.1% phosphatidylethanolamine (PE), 18.5% phosphatidylserine (PS), 4.1% phosphatidylinositol (PI), 0.8% phosphatidic acid and 30.9% of other compounds.
The effective permeability (Pe) after 4 hours was calculated using equation 2 and the percentage of transport was calculated using equation 3:
[formula] wherein: t is time (h) CA(t) is the compound concentration in the acceptor well at time t and CD(to) is the compound concentration in the donor well at to.

[2] = tested on: MK-801-treated rodents; test: Novel object recognition (NOR) task in MK-801 cognition impairment model; format: in vivo, rodents (mice or rats); conditions: 5 mg/Kg s.c.; MK-801 0.2 mg/kg i.p.; FIG. 1
Description: The new compounds were evaluated for their efficacy as cognition enhancers in a pharmacological model for cognitive impairment. The effects of the new compounds were evaluated in untreated and MK-801-treated rodents (mice or rats). MK-801 is a non-competitive antagonist of the N-Methyl-D-aspartate (NMDA) receptor which impairs animal performance in various learning and memory paradigms (Castellano C et al., Curr. Drug Targets 2001; 2:273-83; Riedel G et al., Behav. Brain Res. 2003; 140:1-47). MK-801 also produces various effects on rodent behavior, including deficits in sensory processing, hypermotility, stereotypy and ataxia. […]
The novel object recognition (NOR) task is based on the natural preference of rodents to explore novel objects (Ennaceur A et al., Behav. Brain Res. 1988; 31:47-59). […] The animals were then allowed to explore freely for 10 min, and the time spent exploring each object was recorded. […] An index of discrimination was calculated as follows: time spent exploring the new object minus time spent exploring the old object, divided by the total time exploring both objects, and multiplied by 100. […]

COc1cc(C(=O)N2CC(F)(F)C[C@H]2C(=O)N2CCC[C@H]2C#N)cc(OC)c1OCc1ccccc1 [Example 4, (S)-1-((2S)-1-(4-(benzyloxy)-3,5-dimethoxybenzoyl)-4,4-difluoropyrrolidine-2-carbonyl)pyrrolidine-2-carbonitrile]
% T (percentage of transport) [1]: 29.92%
Papp at 4 h, 200 μM ([1]; PAMPA, read-out: Effective permeability Pe): 22.1 ×10⁻⁶ cm/s
Reversal of MK-801-induced memory impairment in the NOR test [2]: able to reverse MK-801-induced memory impairment
